Each structure is given as a SMILES string.

For data set [1], the system named is Salmonella typhimurium TA 98 and TA 100 strains. Description: Screening Ames test. The following applies: with and without S9 mix; 10 to 5000 μg per plate. The text has this: The objective of this study was to evaluate the potential of the test items to induce reverse mutation in Salmonella Typhimurium (TA 98 and TA 100 strains). The bacterial reverse mutation test is able to identify substances that cause point mutations, by substitution, addition or deletion of one or a few DNA base-pairs. Mutagenic substances can induce reversion in histidine deficient strains which are then able to grow and form colonies in a histidine-limited medium, while non-reverted cannot. This test is performed in the absence and presence of a rat liver metabolising system (S9 mix). Three known mutagens are used to check sensitivity of test system: sodium azide, 2-nitrofluorene and 2-anthramine.
The dose levels per plate were of 10 to 5000 μg. A preliminary toxicity test was performed followed by the mutagenecity test per se.

A further data set has as its system NIH 3T3. Description: Cell viability assay (MTT), NIH 3T3. Type of data set: cell-based, mouse. To be noted: 10% FBS, 1% DMSO. Summed up: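 MTT viability in medium with 10% FBS and 1% DMSO, with cells seeded 24 h before treatment at 0–200 μM (11 concentrations). There were two formats: 6-day (3–15 10^3 cells, re-fed every 3 days) or 16-hour (5–10 10^4 cells). Absorbance was read at 550 nm, giving IC50 (50% cell death) as mean±SEM.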

In a further data set the test system is MCF7. Description: Cell viability assay (MTT), MCF7. Format: cell-based. The following applies: Homo sapiens, 10% FBS, 1% DMSO. How it is done:
Table 12: 6-day cell viability assay (MTT) in the presence of 10% Fetal Bovine Serum and 1% DMSO, in HMEC1, HCT116, MDA-MB-231, MCF7 and NIH3T3 cell lines. 3 10^3 to 15 10^3 cells were seeded in 48-well plates in growth medium containing 10% FBS, with or without various concentrations of test compounds. Cell cultures were fed every 3 days with the appropriate media. Cell viability was determined on day 6. Data were analyzed and IC50s were calculated from dose-response curves using GraphPad Prism. Results summarized in the tables are mean±SEM of 1 to 8 independent experiments.
Table 14: 3-day cell viability assay (MTT) in the presence of 10% Fetal Bovine Serum and 1% DMSO, in DLD1, HCT116, MDA-MB-231, MCF7 and HeLa cells. 7.5 10^3 to 1.5 10^4 cells were seeded in 48-well plates in growth medium containing 10% FBS, with or without various concentrations of test compounds. Data were analyzed and IC50s were calculated from dose-response curves using GraphPad Prism. Results summarized in the tables are mean±SEM of 1 to 7 independent experiments.
In order to determine a compound's effect on cell viability, microculture tetrazolium assays (MTT) were performed as described by Carmichael et al. (1996) with modifications. Four human tumoral cell lines, namely HCT116 colon adenocarcinoma, H460 lung carcinoma, MCF-7 and MDA-MB-231 breast carcinoma cell lines, DLD1 colorectal adenocarcinoma, HeLa adenocarcinoma, HepG2 hepatocellular carcinoma. 3 immortalized but non tumorigenic cell lines, namely NIH3T3 mouse fibroblasts (American Type Culture Collection) and primary hepatocytes (Biopredic international), cultured according to their recommendations together with Human Microvasculature Endothelial Cell line HMEC1 (National Center for Infectious Diseases). Briefly, cells were seeded in 48-well plates 24 hours before drug addition. Cells were treated with 0 to 200 μM (11 concentrations) of compound solubilized in DMSO, adjusting the final concentration of DMSO to 1% in the well. 16 hours, and three or six days after treatment, 0.5 mg/ml MTT (Sigma) was added to the medium and cells were incubated for 1-5 hours at 37° C. before solubilization of formazan crystals in 100% DMSO. Absorbance was measured using a spectrophotometer at a wavelength of 550 nm. Data was analyzed using the GraphPad Prism software (GraphPad Software, Inc.), and IC50 (dose leading to 50% cell death) was calculated from the dose-response curves.

Data set [2] can be described thus: Screening in vivo rising and repeated-dose toxicity study in rats. To be noted: for body weight: at 300 mg/kg/day p.o.; for biological changes (hematology and blood biochemistry) / clinical signs / death during the study / tolerability: p.o. 10, 50, 300 mg/kg per day, 3 days each. The method, then:
Screening in vivo rising and repeated-dose toxicity study in rats was performed on 3 rats per compound with the following schedule: • a. day 1 to day 3: 10 mg/kg p.o. per day, • b. day 4 to day 6: 50 mg/kg p.o. per day, • c. day 7 to day 9: 300 mg/kg p.o. per day.
Clinical signs, bodyweight, food consumption, and blood parameters were followed.

Another data set concerns HCT116. Description: Cell viability assay (MTT), HCT116. Format: cell-based, human. To be noted: 1% DMSO. Summed up:
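Cells seeded 24 h before treatment with 0–200 μM compound (11 concentrations, 1% DMSO final) in 10% or 0.5% FBS medium; exposure 16 h, 3 or 6 days, fed every 3 days in 6-day runs. MTT 0.5 mg/ml read at 550 nm; IC50 from dose-response curves, mean±SEM.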

For a further data set, the system named is HMEC1. As to the kind of experiment: Cell viability assay (MTT), HMEC1. Format: cell-based, Human. To be noted: MTT, 10% FBS, 6-day treatment, 1% DMSO. Put shortly:
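HMEC1 cells seeded 24 h before dosing, then exposed to 0–200 μM compound (11 concentrations) in medium with 10% FBS and 1% DMSO final, refed every 3 days. Viability read on day 6 by MTT (0.5 mg/ml, 1–5 h at 37 °C), absorbance 550 nm; IC50 from dose-response curves, mean±SEM of 1–8 experiments.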

Where [3] appears, read: Mus musculus, NIH3T3, 16 h, 16-hours treatment.
Setting [4] is: Mus musculus, NIH3T3, 144 h, 6-day treatment.
[5] abbreviates: Homo sapiens, HCT-116, 16 h, 10% FBS, 16-hours treatment.
Where [6] appears, read: Homo sapiens, HCT-116, 72 h, 10% FBS, 3-day treatment.
The mark [7] stands for this setting: Homo sapiens, HCT-116, 144 h, 0.5% FBS, 6-day treatment.
Setting [8] is: Homo sapiens, HCT-116, 144 h, 10% FBS, 6-day treatment.
Where [9] appears, read: 10% FBS, 6-day treatment, trihydrochloride.

For orientation: IC50 means the point on the concentration scale where inhibition reaches its midpoint. High values mean weaker potency in that assay, low ones greater potency in that assay. With `Cl.Cl.O=c1cc(CN2CCOCC2)occ1OCCCCCSc1ccnc2cc(C(F)(F)F)ccc12` [EHT 1864, 5-(5-(7-(Trifluoromethyl)quinolin-4-ylthio)pentyloxy)-2-(morpholinomethyl)-4H-pyran-4-one dihydrochloride], the mutagenic activity result in data set [1] was “did not show any mutagenic activity”. For the same compound, the IC50 was 69.3 µM in the data set on NIH 3T3 (setting [3]); 19.8 µM in the data set with NIH 3T3 (setting [4]); 15.2 µM in the data set on MCF7 (MCF7, 72 h, 3-day treatment); 5.6 µM in the data set on MCF7 (MCF7, 144 h, 6-day treatment); 2.7 µM with HCT116 (10% FBS, 6-day treatment, dihydrochloride); 37 µM in the data set with HCT116 (setting [5]). The concentration for half-maximal inhibition (IC50) in the data set with HCT116 (setting [6]) was 6.1 µM; in the data set on HCT116 (setting [7]) it was 6.6 µM; with HCT116 (setting [8]) it was below 4 µM; in the data set on HMEC1 (Homo sapiens, HMEC-1, 144 h), 27.4 µM. In addition, in data set [2], the body weight entry is listed as “mean body weight loss”. Moreover, the “biological changes (hematology and blood biochemistry)” value (from here on “biological changes”) in data set [2] is on record as “Some limited biological changes”. The clinical signs result in data set [2] was “Minimal clinical signs”. Moreover, in data set [2], the “death during the study” value is recorded as “No death occurred”. Besides, the tolerability entry in data set [2] is recorded as “quite well tolerated up to 300 mg/kg/day”.

Take `CN1CCN(Cc2cc(=O)c(OCCCCCSc3ccnc4cc(C(F)(F)F)ccc34)co2)CC1.Cl.Cl.Cl` [EHT 9241, 5-(5-(7-(Trifluoromethyl)quinolin-4-ylthio)pentyloxy)-2-((4-methylpiperazin-1-yl)methyl)-4H-pyran-4-one trihydrochloride]: in data set [1], the mutagenic activity result is given as “did not show any mutagenic activity”. Also, the IC50 in the data set with NIH 3T3 (6-day treatment, trihydrochloride) came to 8.7 µM; with NIH 3T3 (setting [3]), 25.6 µM; with MCF7 (MCF7, 72 h, 3-day treatment), 7.5 µM; in the data set on MCF7 (MCF7, 144 h, 6-day treatment) it was 1.2 µM; with HCT116 (setting [9]), 4 µM; with HCT116 (setting [5]), 31.3 µM. Besides, the IC50 in the data set with HCT116 (setting [6]) was 5.7 µM; in the data set on HCT116 (setting [7]), 6.2 µM; with HCT116 (setting [8]) it was below 4 µM; in the data set with HMEC1 (Homo sapiens, HMEC-1, 144 h), below 10 µM; in the data set on HMEC1 (trihydrochloride), 8.2 µM. For the same compound, the body weight entry in data set [2] is reported as “mean body weight loss”. Also, the “biological changes” value in data set [2] is recorded as “Some limited biological changes”. The clinical signs entry in data set [2] is “Minimal clinical signs”. Further, the “death during the study” value in data set [2] is listed as “No death occurred”. Moreover, in data set [2], the tolerability result is listed as “quite well tolerated up to 300 mg/kg/day”.

Regarding `Cl.Cl.Cl.O=c1cc(CN2CCNCC2)occ1OCCCCCSc1ccnc2cc(C(F)(F)F)ccc12` [EHT 8560, 5-(5-(7-(Trifluoromethyl)quinolin-4-ylthio)pentyloxy)-2-((piperazin-1-yl)methyl)-4H-pyran-4-one trihydrochloride], in data set [1], the mutagenic activity result is reported as “did not show any mutagenic activity”. For the same compound, the IC50 in the data set on NIH 3T3 (setting [4]) is 5.1 µM; with MCF7 (MCF7, 72 h, 3-day treatment), 9.2 µM; with HCT116 (setting [9]), 3.8 µM; in the data set with HCT116 (setting [6]) it was 4 µM; in the data set with HCT116 (setting [7]), 4.6 µM; in the data set with HCT116 (setting [8]), below 4 µM. In addition, the IC50 is below 10 µM in the data set with HMEC1 (Homo sapiens, HMEC-1, 144 h) and 6.1 µM in the data set on HMEC1 (trihydrochloride). Besides, in data set [2], the body weight result is reported as “mean body weight loss”. Further, the “biological changes” value in data set [2] is “Some limited biological changes”. In data set [2], the clinical signs entry was “Minimal clinical signs”. Further, the “death during the study” value in data set [2] was “No death occurred”. The tolerability result in data set [2] is “quite well tolerated up to 300 mg/kg/day”.

For the origin of these results see patent publication US7514432B2, “Compounds and methods of treating cell proliferative diseases, retinopathies and arthritis” (Exonhit Therapeutics SA, priority 2003, dated 2009).
